Data published in PubChem BioAssay (NCI).
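Five concentrations, 48 hours, 96-well plates. TGI denotes the concentration required for complete inhibition of growth.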

Columns and labels:
Assay in all cases: NCI tumour cell line growth inhibition, 48 h
SF-295 CNS = test system: SF-295 CNS
SK-MEL-2 melanoma = test system: SK-MEL-2 melanoma
MOLT-4 leukemia = test system: MOLT-4 leukemia
RPMI-8226 leukemia = test system: RPMI-8226 leukemia
K-562 leukemia = test system: K-562 leukemia
MDA-N = test system: MDA-N
U251 CNS = test system: U251 CNS
NCI-H226 lung = test system: NCI-H226 lung
HT29 colon = test system: HT29 colon
SF-268 CNS = test system: SF-268 CNS
OVCAR-8 ovarian = test system: OVCAR-8 ovarian
PC-3 prostate = test system: PC-3 prostate
SK-MEL-28 melanoma = test system: SK-MEL-28 melanoma
SK-OV-3 ovarian = test system: SK-OV-3 ovarian
A498 renal = test system: A498 renal
KM12 colon = test system: KM12 colon
A549 NSCLC = test system: A549 NSCLC
MALME-3M melanoma = test system: MALME-3M melanoma
OVCAR-5 ovarian = test system: OVCAR-5 ovarian
NCI-H23 lung = test system: NCI-H23 lung
OVCAR-4 ovarian = test system: OVCAR-4 ovarian
SK-MEL-5 melanoma = test system: SK-MEL-5 melanoma
HCT-116 colon = test system: HCT-116 colon
CAKI-1 renal = test system: CAKI-1 renal
MDA-MB-435 = test system: MDA-MB-435
HCC-2998 colon = test system: HCC-2998 colon
NCI-H460 lung = test system: NCI-H460 lung
SNB-19 CNS = test system: SNB-19 CNS
ACHN renal = test system: ACHN renal
UO-31 renal = test system: UO-31 renal
RXF 393 renal = test system: RXF 393 renal
UACC-257 melanoma = test system: UACC-257 melanoma
EKVX NSCLC = test system: EKVX NSCLC
UACC-62 melanoma = test system: UACC-62 melanoma
SF-539 CNS = test system: SF-539 CNS
MDA-MB-231 breast = test system: MDA-MB-231 breast
TK-10 renal = test system: TK-10 renal
DU-145 prostate = test system: DU-145 prostate
HOP-62 NSCLC = test system: HOP-62 NSCLC
BT-549 breast = test system: BT-549 breast
IGROV1 ovarian = test system: IGROV1 ovarian
T-47D breast = test system: T-47D breast
OVCAR-3 ovarian = test system: OVCAR-3 ovarian
COLO 205 colon = test system: COLO 205 colon
M14 melanoma = test system: M14 melanoma
CCRF-CEM leukemia = test system: CCRF-CEM leukemia
SNB-75 CNS = test system: SNB-75 CNS
HS 578T breast = test system: HS 578T breast
MCF7 breast = test system: MCF7 breast
NCI-H522 lung = test system: NCI-H522 lung
NCI/ADR-RES ovarian = test system: NCI/ADR-RES ovarian
LOX IMVI melanoma = test system: LOX IMVI melanoma
HCT-15 colon = test system: HCT-15 colon
SW-620 colon = test system: SW-620 colon
HOP-92 NSCLC = test system: HOP-92 NSCLC
786-0 renal = test system: 786-0 renal
HL-60(TB) leukemia = test system: HL-60(TB) leukemia
SN12C renal = test system: SN12C renal
SR leukemia = test system: SR leukemia

## N#Cc1c(N2CCN(c3ccc([N+](=O)[O-])cc3)CC2)[n+](=O)c2ccc(-c3ccc([N+](=O)[O-])cc3)cc2n1[O-]
SF-295 CNS
  TGI: > 100 µM
SK-MEL-2 melanoma
  TGI: > 100 µM
MOLT-4 leukemia
  TGI: > 100 µM
RPMI-8226 leukemia
  TGI: > 75 µM
K-562 leukemia
  TGI: > 100 µM
MDA-N
  TGI: > 100 µM
U251 CNS
  TGI: > 41 µM
NCI-H226 lung
  TGI: > 100 µM
HT29 colon
  TGI: > 100 µM
SF-268 CNS
  TGI: > 100 µM
OVCAR-8 ovarian
  TGI: > 100 µM
PC-3 prostate
  TGI: > 100 µM
SK-MEL-28 melanoma
  TGI: > 100 µM
SK-OV-3 ovarian
  TGI: > 100 µM
A498 renal
  TGI: > 100 µM
KM12 colon
  TGI: > 100 µM
A549 NSCLC
  TGI: > 100 µM
MALME-3M melanoma
  TGI: > 100 µM
OVCAR-5 ovarian
  TGI: > 100 µM
NCI-H23 lung
  TGI: > 100 µM
OVCAR-4 ovarian
  TGI: > 100 µM
SK-MEL-5 melanoma
  TGI: 17.5 µM
HCT-116 colon
  TGI: > 100 µM
CAKI-1 renal
  TGI: > 100 µM
MDA-MB-435
  TGI: > 100 µM
HCC-2998 colon
  TGI: > 57.3 µM
NCI-H460 lung
  TGI: > 38.3 µM
SNB-19 CNS
  TGI: > 100 µM
ACHN renal
  TGI: > 100 µM
UO-31 renal
  TGI: > 100 µM
RXF 393 renal
  TGI: > 100 µM
UACC-257 melanoma
  TGI: > 100 µM
EKVX NSCLC
  TGI: > 100 µM
UACC-62 melanoma
  TGI: > 100 µM
SF-539 CNS
  TGI: > 100 µM
MDA-MB-231 breast
  TGI: > 48.6 µM
TK-10 renal
  TGI: > 100 µM
DU-145 prostate
  TGI: > 100 µM
HOP-62 NSCLC
  TGI: 23.8 µM
BT-549 breast
  TGI: > 100 µM
IGROV1 ovarian
  TGI: > 77.8 µM
T-47D breast
  TGI: > 100 µM
OVCAR-3 ovarian
  TGI: > 77.2 µM
COLO 205 colon
  TGI: > 100 µM
M14 melanoma
  TGI: > 58.9 µM
CCRF-CEM leukemia
  TGI: > 100 µM
SNB-75 CNS
  TGI: > 100 µM
HS 578T breast
  TGI: > 100 µM
MCF7 breast
  TGI: > 100 µM
NCI-H522 lung
  TGI: > 100 µM
NCI/ADR-RES ovarian
  TGI: > 100 µM
LOX IMVI melanoma
  TGI: > 100 µM
HCT-15 colon
  TGI: > 100 µM
SW-620 colon
  TGI: > 100 µM
HOP-92 NSCLC
  TGI: > 83.9 µM
786-0 renal
  TGI: > 100 µM

## Cc1nc(Nc2nc3ccccc3[nH]2)nc(Cl)c1CCCl
SK-MEL-2 melanoma
  TGI: > 100 µM
MOLT-4 leukemia
  TGI: > 100 µM
RPMI-8226 leukemia
  TGI: > 100 µM
K-562 leukemia
  TGI: > 100 µM
MDA-N
  TGI: > 100 µM
U251 CNS
  TGI: > 100 µM
NCI-H226 lung
  TGI: > 100 µM
HT29 colon
  TGI: > 100 µM
SF-268 CNS
  TGI: > 100 µM
OVCAR-8 ovarian
  TGI: > 100 µM
PC-3 prostate
  TGI: > 100 µM
SK-MEL-28 melanoma
  TGI: > 100 µM
A498 renal
  TGI: > 100 µM
KM12 colon
  TGI: > 100 µM
A549 NSCLC
  TGI: > 100 µM
MALME-3M melanoma
  TGI: > 100 µM
NCI-H23 lung
  TGI: > 100 µM
OVCAR-4 ovarian
  TGI: > 100 µM
SK-MEL-5 melanoma
  TGI: > 100 µM
HCT-116 colon
  TGI: > 100 µM
CAKI-1 renal
  TGI: > 100 µM
MDA-MB-435
  TGI: > 100 µM
NCI-H460 lung
  TGI: > 100 µM
SNB-19 CNS
  TGI: > 100 µM
HL-60(TB) leukemia
  TGI: > 100 µM
ACHN renal
  TGI: > 100 µM
UO-31 renal
  TGI: > 100 µM
SN12C renal
  TGI: > 100 µM
SR leukemia
  TGI: > 100 µM
UACC-257 melanoma
  TGI: > 100 µM
EKVX NSCLC
  TGI: > 100 µM
UACC-62 melanoma
  TGI: > 100 µM
SF-539 CNS
  TGI: > 100 µM
MDA-MB-231 breast
  TGI: > 100 µM
TK-10 renal
  TGI: > 100 µM
DU-145 prostate
  TGI: > 100 µM
BT-549 breast
  TGI: > 100 µM
IGROV1 ovarian
  TGI: > 100 µM
T-47D breast
  TGI: > 100 µM
COLO 205 colon
  TGI: > 100 µM
M14 melanoma
  TGI: > 100 µM
CCRF-CEM leukemia
  TGI: > 100 µM
SNB-75 CNS
  TGI: > 100 µM
HS 578T breast
  TGI: > 100 µM
NCI-H522 lung
  TGI: > 100 µM
NCI/ADR-RES ovarian
  TGI: > 100 µM
HCT-15 colon
  TGI: > 100 µM
SW-620 colon
  TGI: > 100 µM
HOP-92 NSCLC
  TGI: 90.3 µM
786-0 renal
  TGI: > 100 µM

## CC(=O)Nc1ccc(/C=C2/NC(=S)N(/C=C3\C(=O)Oc4ccccc4C3=O)C2=O)cc1
SF-295 CNS
  TGI: > 100 µM
SK-MEL-2 melanoma
  TGI: > 100 µM
MOLT-4 leukemia
  TGI: > 100 µM
RPMI-8226 leukemia
  TGI: > 100 µM
K-562 leukemia
  TGI: > 100 µM
MDA-N
  TGI: > 100 µM
U251 CNS
  TGI: > 100 µM
NCI-H226 lung
  TGI: > 100 µM
HT29 colon
  TGI: > 100 µM
SF-268 CNS
  TGI: > 100 µM
OVCAR-8 ovarian
  TGI: > 100 µM
PC-3 prostate
  TGI: > 100 µM
SK-MEL-28 melanoma
  TGI: > 100 µM
SK-OV-3 ovarian
  TGI: > 100 µM
A498 renal
  TGI: > 100 µM
KM12 colon
  TGI: > 100 µM
A549 NSCLC
  TGI: > 100 µM
MALME-3M melanoma
  TGI: > 100 µM
OVCAR-5 ovarian
  TGI: > 100 µM
NCI-H23 lung
  TGI: > 100 µM
OVCAR-4 ovarian
  TGI: > 100 µM
SK-MEL-5 melanoma
  TGI: > 100 µM
HCT-116 colon
  TGI: > 100 µM
CAKI-1 renal
  TGI: > 100 µM
MDA-MB-435
  TGI: > 100 µM
HCC-2998 colon
  TGI: > 100 µM
NCI-H460 lung
  TGI: > 100 µM
SNB-19 CNS
  TGI: > 100 µM
HL-60(TB) leukemia
  TGI: > 100 µM
ACHN renal
  TGI: > 100 µM
UO-31 renal
  TGI: > 100 µM
SN12C renal
  TGI: > 100 µM
RXF 393 renal
  TGI: > 100 µM
SR leukemia
  TGI: > 100 µM
UACC-257 melanoma
  TGI: > 100 µM
EKVX NSCLC
  TGI: > 100 µM
UACC-62 melanoma
  TGI: > 100 µM
SF-539 CNS
  TGI: > 100 µM
MDA-MB-231 breast
  TGI: > 100 µM
TK-10 renal
  TGI: > 100 µM
DU-145 prostate
  TGI: > 100 µM
HOP-62 NSCLC
  TGI: > 100 µM
IGROV1 ovarian
  TGI: > 100 µM
T-47D breast
  TGI: > 100 µM
OVCAR-3 ovarian
  TGI: > 100 µM
COLO 205 colon
  TGI: > 100 µM
M14 melanoma
  TGI: > 100 µM
CCRF-CEM leukemia
  TGI: > 100 µM
SNB-75 CNS
  TGI: 63.1 µM
HS 578T breast
  TGI: > 100 µM
MCF7 breast
  TGI: > 100 µM
NCI-H522 lung
  TGI: > 100 µM
NCI/ADR-RES ovarian
  TGI: > 100 µM
LOX IMVI melanoma
  TGI: > 100 µM
HCT-15 colon
  TGI: > 100 µM
SW-620 colon
  TGI: > 100 µM
HOP-92 NSCLC
  TGI: > 100 µM
786-0 renal
  TGI: > 100 µM
